Test results published in patent US6417167B1, “Lyophilized compositions containing shingoglycolipid and process for preparing them” (Kirin Beer Kabushiki Kaisha, priority 1997, dated 2002).

Key:
Type in all cases: physicochemical
[1] = Additives for improving re-solubility during storage, mannitol as excipient; conditions: lyophilized, Polysorbate 20 0.5%, 25° C.
Description: (§1) First, Polysorbate 20 was dissolved in distilled water in a concentration of 0.5%, and mannitol and a variety of additives such concentrations as listed in Table 8. Next, 20 mg of the active component (KRN7000) was weighed and stirred in 100 ml of the solvents in a heated bath to 80° C. for 20 minutes in order to form a solution. After cooling with running water, the mixture was filtered through a 0.22 μm filter, and transparent colorless glass vials having a volume of 5 ml were charged with 1 ml portion of each of a variety of solutions thus obtained and subjected to lyophilization. Lyophilization was carried out under the condition of preliminary freezing at −40° C. for 2 hours and drying at −20° C. for 24 hours, 10° C. for 12 hours, and finally at 25° C. for 5 hours to give the lyophilized product. The degree of vacuum was set at 0.1 Torr or less during drying step.
After the lyophilization step, the lyophilized composition was stored at 25° C. After storage for 1 month, the lyophilized composition was reconstituted in 1 ml of distilled water for injection, left standing for 30 minutes, and solubility was judged when the foams generated on reconstitution disappeared. The samples judged in solution were further stored, and judged again of their solubility after 4 months.
(§2) The solubility was judged by cleaning the outside of the vial and placing it beneath the white light source in a darkroom for observation with naked eye at the position of a luminous intensity of about 5,000 lux. When the sample was clear with no precipitates, it was judged that the active component was dissolved.

[2] = Cooling condition after dissolution with heating 1: turbidity (absorbance 660 nm, kaolin standard); conditions: Polysorbate 20 0.5%, histidine 0.75%, sucrose 5.6%; cooling 73° C. → 30° C., 23 minutes; reconstituted in 1 ml distilled water
Description: First, Polysorbate 20 was dissolved in distilled water in a concentration of 0.5%, histidine in a concentration of 0.75%, and sucrose in a concentration of 5.6%. Next, 800 mg of the active component (KRN7000) was weighed and stirred in 4 liters of the solvent under heating at 73° C. for 30 minutes in order to form a solution. After dissolution, the mixture was divided into about 500 ml portions, cooled with stirring from 73° C. to 30° C. (6 minutes), from 73° C. to 30° C. (23 minutes), and from 73° C. to 30° C. (120 minutes). […]
The turbidity of the solutions prepared respective cooling conditions before or after the filtration step, and the lyophilized composition thus obtained which were reconstituted after leaving standing at room temperature (25° C. ) for 3 hours from the lyophilization step, were measured. In this connection, the lyophilized composition was reconstituted in 1 ml of distilled water for injection, left standing for 30 minutes, and turbidity was measured when the foams generated on reconstitution disappeared.
The turbidity was measured by the following method: various dilutions including 50-fold dilution (kaolin 2 μg/ml, turbidity 2.00), 100-fold dilution (kaolin 1 μg/ml, turbidity 1.00), and 200-fold dilution (kaolin 0.5 μg/ml, turbidity 0.50) were prepared by diluting the turbidity standard (kaolin, 0.1 mg/ml) with distilled water. […]

[3] = Excipient appropriate to lyophilization 1: re-solubility immediately after lyophilization; conditions: KRN7000 200 μg/ml, Polysorbate 20 0.5%
Description: A variety of monosaccharides and disaccharides were used for examination of excipients of the lyophilized preparation. In this context, the active component (KRN7000) was set at the concentration of 200 μg/ml, and Polysorbate 20 which is used only in a limited amount from the viewpoint of safety was set at the concentration of 0.5% in the following examination.
as §1, with “0.5%, and the saccharides were dissolved in such concentrations” for “0.5%, and mannitol and a variety of additives such concentrations”, “in Table 6. Next, 20” for “in Table 8. Next, 20”, “charged with a 1 ml” for “charged with 1 ml”
After the lyophilization step, the lyophilized composition was reconstituted in 1 ml of distilled water for injection, left standing for 30 minutes, and solubility was judged when the foams generated on reconstitution disappeared.
as §2

## CCCCCCCCCCCCCCCCCCCCCCCCCC(=O)N[C@@H](CO[C@H]1O[C@H](CO)[C@H](O)[C@H](O)[C@H]1O)[C@H](O)[C@H](O)CCCCCCCCCCCCCC [KRN7000, (2S,3S,4R)-1-(α-D-galactopyranosyloxy)-2-hexacosanoylamino-3,4-octadecanediol]
[1]; Mannitol 10%, Sodium deoxycholate, 1%, 1 month
  Re-solubility after storage (by naked eye): − (dissolved)
[1]; Mannitol 10%, Sodium deoxycholate, 1%, 4 months
  Re-solubility after storage (by naked eye): − (dissolved)
[1]; Mannitol 10%, no additive, 1 month
  Re-solubility after storage (by naked eye): − (dissolved)
[1]; Mannitol 10%, no additive, 4 months
  Re-solubility after storage (by naked eye): + (not dissolved (or deposited))
[1]; Mannitol 15%, Glycerol, 0.1%, 1 month
  Re-solubility after storage (by naked eye): + (not dissolved (or deposited))
[1]; Mannitol 15%, Glycerol, 0.1%, 4 months
  Re-solubility after storage (by naked eye): + (not dissolved (or deposited))
[1]; Mannitol 15%, Glycerol, 1%, 1 month
  Re-solubility after storage (by naked eye): + (not dissolved (or deposited))
[1]; Mannitol 15%, Glycerol, 1%, 4 months
  Re-solubility after storage (by naked eye): + (not dissolved (or deposited))
[1]; Mannitol 15%, PEG400, 1%, 1 month
  Re-solubility after storage (by naked eye): + (not dissolved (or deposited))
[1]; Mannitol 15%, PEG400, 1%, 4 months
  Re-solubility after storage (by naked eye): + (not dissolved (or deposited))
[1]; Mannitol 15%, Sodium deoxycholate, 1%, 1 month
  Re-solubility after storage (by naked eye): + (not dissolved (or deposited))
[1]; Mannitol 15%, Sodium deoxycholate, 1%, 4 months
  Re-solubility after storage (by naked eye): + (not dissolved (or deposited))
[1]; Mannitol 15%, no additive, 1 month
  Re-solubility after storage (by naked eye): + (not dissolved (or deposited))
[1]; Mannitol 15%, no additive, 4 months
  Re-solubility after storage (by naked eye): + (not dissolved (or deposited))
[2]
  Turbidity Lyophilized composition: 0.36
[3]; excipient Fructose 5%
  Re-solubility immediately after lyophilization: + (not dissolved (or deposited))
[3]; excipient Fructose 10%
  Re-solubility immediately after lyophilization: + (not dissolved (or deposited))
[3]; excipient Glucose 5%
  Re-solubility immediately after lyophilization: − (dissolved)
[3]; excipient Glucose 10%
  Re-solubility immediately after lyophilization: + (not dissolved (or deposited))
[3]; excipient Lactose 5%
  Re-solubility immediately after lyophilization: + (not dissolved (or deposited))
[3]; excipient Lactose 10%
  Re-solubility immediately after lyophilization: + (not dissolved (or deposited))
[3]; excipient Maltose 1.5%
  Re-solubility immediately after lyophilization: + (not dissolved (or deposited))
[3]; excipient Maltose 3%
  Re-solubility immediately after lyophilization: + (not dissolved (or deposited))
[3]; excipient Mannitol 5%
  Re-solubility immediately after lyophilization: + (not dissolved (or deposited))
[3]; excipient Mannitol 10%
  Re-solubility immediately after lyophilization: − (dissolved)
[3]; excipient Sorbitol 5%
  Re-solubility immediately after lyophilization: + (not dissolved (or deposited))
[3]; excipient Sorbitol 10%
  Re-solubility immediately after lyophilization: + (not dissolved (or deposited))
[3]; excipient Sucrose 4.8%
  Re-solubility immediately after lyophilization: − (dissolved)
[3]; excipient Sucrose 9.6%
  Re-solubility immediately after lyophilization: − (dissolved)
[3]; excipient Xylitol 4.3%
  Re-solubility immediately after lyophilization: + (not dissolved (or deposited))
[3]; excipient Xylitol 8.6%
  Re-solubility immediately after lyophilization: + (not dissolved (or deposited))
